These results are taken from PubChem BioAssay AID1399 (The Scripps Research Institute Molecular Screening Center, 2008).

One may read the IC50 as the concentration at which inhibition is half-maximal.

The structures appear in SMILES notation. Activity calls are given as the source filed them. The limit is not given here; nearly all actives have IC50 up to about 8.9 µM.

The target in this test is Signal transducer and activator of transcription 3 (Homo sapiens) (UniProt P40763). Briefly: STAT3 reporter inhibitors, potency, dose response, cell-based (AID 1399). The note with it: human cell STAT3 reporter inhibition.
As for `CC1CCC2C(=O)N(c3ccccc3OC(=O)c3ccccc3)C(=O)C2C1` (configuration not stated), the IC50 was 9.22 µM.

For `Cc1nc2sccn2c1-c1csc(NCc2ccccc2)n1`, the IC50 was 4.37 µM.

Take `CCOC(=O)c1ccc(NC(=O)c2ccc(CN3CCOCC3)cc2)cc1`: the 50% inhibitory concentration (IC50) is 2.9 µM.

For the compound `O=C(Nc1ccncc1)c1ccc2c(c1)C(=O)N(C1CCCCC1)C2=O`, the IC50 is 2.42 µM.

Consider `O=C(COC(=O)c1n[nH]c2ccccc12)Nc1ccc(S(=O)(=O)N2CCCC2)cc1`, for which the 50% inhibitory concentration (IC50) was 4.5 µM.

Turning to `O=C(Nc1ccc(N2CCOCC2)nc1)c1ccc(C(F)(F)F)cc1`, the half-inhibitory concentration (IC50) was 3.4 µM.

As to `C[C@@H]1O[C@@H](O[C@H]2C[C@@H](O)[C@]3(CO)[C@H]4[C@H](O)C[C@]5(C)[C@@H](C6=CC(=O)OC6)CC[C@]5(O)[C@@H]4CC[C@]3(O)C2)[C@H](O)[C@H](O)[C@H]1O`, the 50% inhibitory concentration (IC50) was 1.15 µM.

For the compound `O=C(Nc1nc(-c2ccc(Cl)s2)cs1)c1ccncc1`, the IC50 was 4.01 µM.

Consider `COc1cccc(-c2cc(C(=O)Nc3cccc(O)c3)no2)c1`, for which the half-inhibitory concentration (IC50) is 4.99 µM.

Regarding `O=C1C2C3c4ccccc4C(c4ccccc43)[C@@H]2c2nc3ccccc3n21` (some centres not stated), the half-inhibitory concentration (IC50) is 4.51 µM.

On to `CCCNC(=O)c1ccc(-c2nc3ccccc3s2)s1`, for which the concentration for half-maximal inhibition (IC50) was 5.06 µM.

As for `NC(=O)C1CCN(c2ccc(S(=O)(=O)N3CCC(Cc4ccccc4)CC3)cn2)CC1`, the IC50 was 4.93 µM.

Turning to `COc1ccc(/C=N/NC(=S)Nc2ccccc2[N+](=O)[O-])cc1O`, the IC50 was 1.74 µM.

In the case of `COc1ccc2cc(-c3cc(C(=O)OCC(=O)Nc4c(C)n(C)n(-c5ccccc5)c4=O)c4ccccc4n3)ccc2c1`, the IC50 is 4.63 µM.

On to `COC(=O)c1cccc(NC(=O)CSc2nc3cccnc3n2C)c1`, for which the IC50 is 5.35 µM.

As to `Cc1cc(OCC(=O)Nc2ccncc2)cc(C)c1Br`, the IC50 was 3.18 µM.

`Cc1nc(CNS(=O)(=O)c2ccc(Oc3ccccc3)cc2)cs1`: the half-inhibitory concentration (IC50) was 5.54 µM.

Take `Clc1ccc2ncc(-c3nnnn3-c3ccccc3)c(-c3ccccc3)c2c1`: the half-maximal inhibitory concentration (IC50) is 8.01 µM.

On to `CC(=O)Nc1ccc(-c2csc(Nc3ccc(Cl)cn3)n2)cc1`, for which the half-maximal inhibitory concentration (IC50) was 6.34 µM.

`O=C1CCCN1c1ccc(S(=O)(=O)N2CCC(c3ccccc3)CC2)cc1`: the IC50 is 4.5 µM.

On to `O=C1c2ccc(Br)cc2C(=O)N1c1ccc(Cc2ccncc2)cc1`, for which the IC50 was 5.65 µM.

For `CN(C)S(=O)(=O)Oc1cccc(C(=O)Nc2ccc(Cl)cc2)c1`, the half-maximal inhibitory concentration (IC50) was 5.23 µM.

`COc1ccc(NS(=O)(=O)c2ccc(NC(=O)c3ccc(N(C)S(C)(=O)=O)cc3)cc2)cc1`: the half-inhibitory concentration (IC50) was 3.99 µM.

`CNc1ccccc1C(C)(C)c1cc(-c2ccc(F)cc2)no1`: the IC50 was 5.41 µM.

`Cc1ccc(-c2cn3cc([N+](=O)[O-])ccc3n2)cc1`: the IC50 was 4.09 µM.

On to `COc1cc(OC)cc(C(=O)Nc2ccc(-c3nc4ccccc4o3)cc2)c1`, for which the IC50 entry was “inactive”.

Turning to `O=C(Nc1cccc(S(=O)(=O)Nc2ccccc2Cl)c1)c1ccc(Cl)nc1`, the 50% inhibitory concentration (IC50) was 5.13 µM.

Regarding `Clc1ccc(CSc2nnc(Cn3cnc4ccccc43)o2)cc1`, the IC50 is 5.02 µM.

With `COc1ccccc1OCC(=O)c1[nH]c(C)c(C(C)=O)c1C`, the IC50 was 5.33 µM.

For `CCOc1cc(C(=S)N2CCOCC2)ccc1OS(=O)(=O)c1ccc(NC(C)=O)cc1`, the IC50 was 5.23 µM.

Regarding `O=C(Oc1ccccc1N1C(=O)C2CCCCC2C1=O)c1ccccc1` (configuration not stated), the half-inhibitory concentration (IC50) was 7.93 µM.

For `O=S(=O)(c1ccc2c(c1)OCCO2)N1CCC(c2nc3ccccc3s2)CC1`, the IC50 was 6.73 µM.

For `O=C(Nc1ccn(Cc2ccccc2F)n1)c1ccc(COc2ccccc2Cl)cc1`, the IC50 was 5.12 µM.

In the case of `COc1ccc2nc3c(cc2c1)c(NC(=O)c1cccs1)nn3CC(C)C`, the IC50 was 3.75 µM.

For `O=C(Nc1ccn(Cc2ccccc2F)n1)c1ccc(COc2ccc(Br)cc2)cc1`, the concentration for half-maximal inhibition (IC50) was 2.9 µM.

On to `CCC(C)(C)c1ccc(OCCCC[n+]2cccc(C)c2)c(C(C)(C)CC)c1`, for which the 50% inhibitory concentration (IC50) is 4.09 µM.

Regarding `Nc1cc(-c2ccccc2)nn1Cc1ccc(Cl)cc1`, the IC50 is 6.76 µM.

For the compound `O=C1C2C3c4ccccc4C(c4ccccc43)C2c2nc3ccccc3n21` (configuration not stated), the half-maximal inhibitory concentration (IC50) is 3.23 µM.

On to `Cc1ccc(Cl)cc1N1CCN(C(=O)COc2ccc(S(=O)(=O)NC(C)C)cc2)CC1`, for which the IC50 was 7.8 µM.

Turning to `CCOC(=O)c1oc2ccc(S(=O)(=O)Nc3ccc4c(c3)n(C)c(=O)n4C)cc2c1C`, the 50% inhibitory concentration (IC50) was 5.04 µM.

As to `Cc1ccc(N2C(=O)c3ccccc3C2O)nc1` (configuration not stated), the half-maximal inhibitory concentration (IC50) is 5.98 µM.

Turning to `Cc1cccc(N2CCN(C(=O)CSCc3c(C)noc3C)CC2)c1C`, the half-maximal inhibitory concentration (IC50) was 4.55 µM.

Take `Cn1c(=O)oc2cc(S(=O)(=O)N3CCCC(C(=O)N4CC=C(c5ccccc5)CC4)C3)ccc21` (configuration not stated): the 50% inhibitory concentration (IC50) was 5.41 µM.

In the case of `CCCCCCCc1ccc(-c2ccc(O)cc2)nc1`, the IC50 is 3.26 µM.

On to `CC(=O)N1CCc2cc(S(=O)(=O)NC3CCCc4ccccc43)ccc21` (configuration not stated), for which the half-inhibitory concentration (IC50) is 5.12 µM.

Regarding `CCOC(=O)c1sc2nc(CC(=O)OC)nc(NCc3ccc(Cl)cc3)c2c1C`, the IC50 is 7.66 µM.

Take `Cc1ccc(-n2ncc3c(SCc4cccnc4)ncnc32)c(C)c1`: the concentration for half-maximal inhibition (IC50) is 5.76 µM.

Take `CN1/C(=C\C(=O)C[n+]2ccc3ccccc3c2)C(C)(C)c2ccccc21`: the IC50 is 1.74 µM.

Regarding `COc1ccc(Br)cc1/C(C)=N/NC1=NCCN1`, the IC50 was 5.44 µM.

Regarding `CCN(CC)c1ccc(NC(=O)CN2C(=O)CSc3ncccc32)c(C)c1`, the 50% inhibitory concentration (IC50) is 3.82 µM.

Take `O=C(Nc1cccc(Cl)c1)Nc1ccnc(-c2cccnc2)n1`: the half-inhibitory concentration (IC50) was 3.2 µM.

On to `C[C@H]1O[C@@H](O[C@H]2[C@@H](O)C[C@H](O[C@H]3[C@@H](O)C[C@H](O[C@H]4CC[C@@]5(C)[C@H](CC[C@@H]6[C@@H]5CC[C@]5(C)[C@@H](C7=CC(=O)OC7)CC[C@]65O)C4)O[C@@H]3C)O[C@@H]2C)C[C@H](O)[C@@H]1O`, for which the IC50 was 0.7 µM.

Turning to `CCCOc1ccc(/C=N/NC(=S)Nc2ccccc2[N+](=O)[O-])c(O)c1`, the IC50 is 1.05 µM.

For the compound `Cc1nn2cc(-c3ncc(C(F)(F)F)cc3Cl)cnc2c1Br`, the IC50 entry is “inactive”.

Turning to `Cc1ccc(-n2nnnc2SCn2nnc3ccccc3c2=O)c(C)c1`, the IC50 was 5.32 µM.

`CC1CCCCC1NS(=O)(=O)c1ccc(S(=O)(=O)NCc2ccncc2)cc1` (configuration not stated): the IC50 was 3.28 µM.

As to `Cn1c(CN2CCCCC2)nc2cc(NC(=O)c3cccc(Br)c3)ccc21`, the IC50 is 4.55 µM.

`CCOC(=O)Cc1csc(SCC(=O)c2c(N)n(CC(C)C)c(=O)n(C)c2=O)n1`: the IC50 was 3.7 µM.

With `CSc1ccc(NC(=O)N2CCN(c3nc4ccccc4s3)CC2)cc1`, the IC50 is 5.96 µM.

Consider `Clc1ccc(OCc2cc(-c3ccccc3)no2)c(Cl)c1`, for which the concentration for half-maximal inhibition (IC50) is 8.02 µM.

Take `CC(=O)c1cn(CC(=O)Nc2ccccc2C)c2ccccc12`: the half-maximal inhibitory concentration (IC50) is 5.07 µM.

Consider `COc1ccc(C)cc1-n1nnnc1SCn1nnc2ccccc2c1=O`, for which the IC50 was 7.58 µM.

Regarding `COc1ccc(CC(=O)Nc2cccc(-c3nnc(-c4cccc(C)c4)o3)c2)cc1OC`, the half-inhibitory concentration (IC50) is 3.32 µM.

As for `COc1ccc(C(=O)Nc2ccc3oc(Cc4ccc(Cl)cc4)nc3c2)cc1OC`, the concentration for half-maximal inhibition (IC50) is 6.74 µM.

Regarding `Oc1ccc(-c2n[nH]c(=S)n2-c2ccc3c(c2)OCCO3)c(O)c1`, the IC50 was 5.37 µM.

As to `Nc1c(C(=O)NC2CCCCC2)nsc1C(=O)OCC(=O)NC1CCCCC1`, the half-inhibitory concentration (IC50) was 4.22 µM.

Regarding `CCc1c(C)c2ccc(OCC(=O)OC(C)C)c(C)c2oc1=O`, the half-inhibitory concentration (IC50) was 6.19 µM.

On to `c1ccc(CC2CCN(c3ncnc4sccc34)CC2)cc1`, for which the IC50 is 1.61 µM.

`O=C(Nc1ccncc1)c1ccc(-c2ccccc2)cc1`: the IC50 is 2.16 µM.

Regarding `COC(=O)c1nn(-c2ccc3c(c2)CCN3C(C)=O)cc1O`, the IC50 is 1.29 µM.

On to `NNC(=O)c1cccc(COc2ccccc2Br)c1`, for which the half-inhibitory concentration (IC50) is 3.25 µM.

Take `O=C(C1CCN(c2nc3ccc(Br)cc3s2)CC1)N1CCC2(CC1)OCCO2`: the half-maximal inhibitory concentration (IC50) is 2.79 µM.

Consider `c1ccc(C(Cc2nc(-c3ccncc3)no2)c2ccccc2)cc1`, for which the IC50 was 5.05 µM.

As for `Cc1ccc2c(C)nc(Nc3nc(CSc4nc5ccccc5[nH]4)cc(=O)[nH]3)nc2c1`, the half-maximal inhibitory concentration (IC50) was 5.32 µM.

`CCOC(=O)C1=C(Cc2ccc(C)cc2)C(=O)c2ccccc2C1=O`: the IC50 was 7.04 µM.

In the case of `CN(C)S(=O)(=O)c1ccc(C(=O)Nc2nc(-c3cccs3)cs2)cc1`, the concentration for half-maximal inhibition (IC50) was 8.64 µM.

With `C[C@H]1CCC[C@@H](O)CCC/C=C/c2cc(O)cc(O)c2C(=O)O1`, the IC50 is 5.25 µM.

Take `COc1ccc(/C=N/NC(=S)Nc2cccc(C(=O)O)c2)cc1`: the IC50 was 4.56 µM.

On to `Cc1nc2ccccc2cc1OCc1ccccc1`, for which the half-inhibitory concentration (IC50) was 4.76 µM.

Take `O=C(Nc1ccc(Oc2ccccc2)cc1)c1cnc2n(c1=O)CCS2`: the half-maximal inhibitory concentration (IC50) was 1.61 µM.

Take `CNC(=O)Oc1cccc(-c2cn3cc(Cl)ccc3n2)c1`: the 50% inhibitory concentration (IC50) is 1.78 µM.

Turning to `Cc1ccsc1/C=C1\CCc2ccccc2C1=O`, the half-inhibitory concentration (IC50) is 5.04 µM.

As to `Cc1ccccc1OCCCCn1cnc2ccccc21`, the IC50 is 5.73 µM.

Regarding `COC(=O)Oc1ccc(/C=N/NC(=O)CSCc2ccccc2Br)cc1OC`, the concentration for half-maximal inhibition (IC50) was 2.07 µM.

On to `Cc1cccc(-c2nc3cc(NC(=O)C4CCCO4)ccc3o2)c1` (configuration not stated), for which the concentration for half-maximal inhibition (IC50) is 6.32 µM.

For the compound `O=C(Nc1cccc(O)c1)c1noc2c1CCc1ccccc1-2`, the half-inhibitory concentration (IC50) was 3.55 µM.

As to `CC[n+]1ccccc1/C=C/c1ccc(N(C)C)cc1`, the IC50 was 2.94 µM.

Regarding `Cc1csc(NC(=O)c2cc3c(s2)CCCC3)n1`, the IC50 was 3.82 µM.

For the compound `O=C(Oc1cccc(Nc2ncnc3ccccc23)c1)c1ccccc1Cl`, the IC50 was 4.44 µM.

Turning to `CCCCOc1ccc(C(=O)Nc2ccncc2)cc1`, the half-maximal inhibitory concentration (IC50) was 2.11 µM.

As to `O=C(Nc1nccs1)c1ccc(S(=O)(=O)NCC2CCCCC2)cc1`, the IC50 is 3.03 µM.

As to `CC(=O)c1ccc(N=Nc2ccc(C)cc2)cc1`, the concentration for half-maximal inhibition (IC50) was 4.77 µM.

As to `CCCOc1ccc(CSc2nc3ccccc3[nH]2)cc1`, the IC50 was 6.53 µM.

For `COc1ccc(-c2nn(C)c(=O)c3ccccc23)cc1NC(=O)COc1ccc(C)cc1`, the IC50 is 5.06 µM.

Consider `CCOc1ncccc1C(=O)OCC(=O)Nc1ccc(-c2nc3ccc(C)cc3s2)cc1`, for which the IC50 was 3.25 µM.

In the case of `Cc1cccc(C)c1NC(=O)N1CCN(c2nc3ccccc3s2)CC1`, the IC50 is 4.48 µM.

Consider `Cc1cc(NC(=O)c2cc(-c3cccs3)on2)nn1Cc1ccc(Cl)cc1`, for which the 50% inhibitory concentration (IC50) was 5.48 µM.
